Structures can show the parent of a compound that is named as a salt.
What follows are compounds tested on mice (assay: Neuropharmacological Assay (SmartCube)). Conditions: i.p. 15 min before behavioral test; 3 doses, most efficacious dose(s) presented.
Assay type: in vivo
Description: Neurosci. […] As reported in Roberds, because psychiatric diseases generally result from disorders of cell-cell communication or circuitry, intact systems are useful in detecting improvement in disease-relevant endpoints. These endpoints are typically behavioral in nature, often requiring human observation and interpretation. To facilitate testing of multiple compounds for behavioral effects relevant to psychiatric disease, PsychoGenics, Inc. (Tarrytown, N.Y., “PGI”) developed SmartCube™, an automated system in which behaviors of compound-treated mice are captured by digital video and analyzed with computer algorithms. […] PGI Analytical Systems uses data from SmartCube™ to compare the behavioral signature of a test compound to a database of behavioral signatures obtained using a large set of diverse reference compounds. (The composition of the database as well as validation of the method is further described in Roberds). In this way, the neuropharmacological effects of a test compound can be predicted by similarity to major classes of compounds, such as antipsychotics, anxiolytics and antidepressants.
The SmartCube™ system produces an activity signature indicating the probability that the activity of the test compound at the administered dose matches a given class of neuropharmacological agents. (See, e.g., Roberds, FIGS. 2 and 3). The test compound is simultaneously compared against multiple classes of agents; thus, a separate probability is generated for each behavioral effect measured (e.g., anxiolytic activity, analgesic activity, etc.). In Table 2 and 2B, these probabilities are reported for each behavioral effect measured as follows:
where LOQ is the limit of quantification.
Provided compounds were dissolved in a mixture of Pharmasolve™ (N-methyl-2-pyrrolidone), polyethylene glycol and propylene glycol, and were injected i.p. 15 min. before the behavioral test. For each compound, injections were administered at 3 different doses. For each behavioral effect measured, results for the most efficacious dose(s) are presented.
In the case of `CN(C)CC1OCCn2nc3ccc(Cl)cc3c21.Cl` (stereo not shown) [Compound 6, 1-(9-chloro-3,4-dihydro-1H-[1,4]oxazino[4,3-b]indazol-1-yl)-N,N-dimethylmethanaminium chloride], the “AD: ADHD (probability of class match)” value is reported as “+ (LOQ≦ + <5%)”, the “AG: analgesic (probability of class match)” value (“AG: analgesic” for short) is reported as “++ (5%≦ ++ <25%)” and the “AX: anxiolytic (probability of class match)” value (“AX: anxiolytic” below) is reported as “++ (5%≦ ++ <25%)”. The “CE: cognitive enhancer (probability of class match)” value (“CE: cognitive enhancer” below) was “++ (5%≦ ++ <25%)”, the “DP: anti-depressant (probability of class match)” value (“DP: anti-depressant” below) was “+++ (25%≦ +++ <50%)” and the “HA: hallucinogen (probability of class match)” value (“HA: hallucinogen” for short) was “+ (LOQ≦ + <5%)”. The “MS: mood stabilizer (probability of class match)” value (shortened to “MS: mood stabilizer”) was “+ (LOQ≦ + <5%)”, the “PS: anti-psychotic (probability of class match)” value (shortened to “PS: anti-psychotic”) was “++ (5%≦ ++ <25%)” and the “SD: sedative hypnotic (probability of class match)” value (from here on “SD: sedative hypnotic”) was “+ (LOQ≦ + <5%)”. For the same compound, the “UN: uncharacterized CNS activity (probability of class match)” value (“UN: uncharacterized CNS activity” below) was “+ (LOQ≦ + <5%)” and the “XG: anxiogenic (probability of class match)” value (from here on “XG: anxiogenic”) was “+ (LOQ≦ + <5%)”.
`C[C@H]([C@H]1OCCn2nc3ccccc3c21)N(C)C.Cl` (relative stereo) [Compound 32, (+/−)-rel-(R)-1-((R)-3,4-dihydro-1H-[1,4]oxazino[4,3-b]indazol-1-yl)-N,N-dimethylethanaminium chloride] was tested, and the “AD: ADHD (probability of class match)” value was “+ (LOQ≦ + <5%)”, the “AG: analgesic” value was “+ (LOQ≦ + <5%)” and the “AX: anxiolytic” value was “++ (5%≦ ++ <25%)”. For the same compound, the “CE: cognitive enhancer” value was “++ (5%≦ ++ <25%)”, the “DP: anti-depressant” value was “++ (5%≦ ++ <25%)” and the “HA: hallucinogen” value was “+ (LOQ≦ + <5%)”. For the same compound, the “MS: mood stabilizer” value was “+ (LOQ≦ + <5%)”, the “PS: anti-psychotic” value was “+++ (25%≦ +++ <50%)” and the “SD: sedative hypnotic” value was “+ (LOQ≦ + <5%)”. The “UN: uncharacterized CNS activity” value was “++ (5%≦ ++ <25%)” and the “XG: anxiogenic” value was “+ (LOQ≦ + <5%)”.
For `CN(C)CC1OCCn2nc3cnccc3c21.Cl.Cl` (stereo not shown) [Compound 62, 1-((dimethylammonio)methyl)-3,4-dihydro-1H-pyrido[3′,4′:3,4]pyrazolo[5,1-c][1,4]oxazin-8-ium chloride], the “AD: ADHD (probability of class match)” value was “+ (LOQ≦ + <5%)”, the “AG: analgesic” value was “+ (LOQ≦ + <5%)” and the “AX: anxiolytic” value was “++ (5%≦ ++ <25%)”. For the same compound, the “CE: cognitive enhancer” value was “+ (LOQ≦ + <5%)”, the “DP: anti-depressant” value was “+ (LOQ≦ + <5%)” and the “HA: hallucinogen” value was “+ (LOQ≦ + <5%)”. The “MS: mood stabilizer” value was “+ (LOQ≦ + <5%)”, the “PS: anti-psychotic” value was “+ (LOQ≦ + <5%)” and the “SD: sedative hypnotic” value was “+ (LOQ≦ + <5%)”. The “UN: uncharacterized CNS activity” value was “+ (LOQ≦ + <5%)” and the “XG: anxiogenic” value was “+ (LOQ≦ + <5%)”.
With `c1ccc2c3n(nc2c1)CCOC31CCNCC1` [Compound 36, 3′,4′-dihydrospiro[piperidine-4,1′-[1,4]oxazino[4,3-b]indazol]-1-ium chloride] the “AD: ADHD (probability of class match)” value was “+ (LOQ≦ + <5%)”, the “AG: analgesic” value was “++ (5%≦ ++ <25%)” and the “AX: anxiolytic” value was “++ (5%≦ ++ <25%)”. For the same compound, the “CE: cognitive enhancer” value was “++ (5%≦ ++ <25%)”, the “DP: anti-depressant” value was “+++ (25%≦ +++ <50%)” and the “HA: hallucinogen” value was “+ (LOQ≦ + <5%)”. The “MS: mood stabilizer” value was “+ (LOQ≦ + <5%)”, the “PS: anti-psychotic” value was “++ (5%≦ ++ <25%)” and the “SD: sedative hypnotic” value was “++ (5%≦ ++ <25%)”. The “UN: uncharacterized CNS activity” value was “++ (5%≦ ++ <25%)” and the “XG: anxiogenic” value was “+ (LOQ≦ + <5%)”.
For `CN1CC[C@H]1C1OCCn2nc3ccccc3c21` (stereo partly drawn) [Compound 65, ((2S)-2-(3,4-dihydro-1H-[1,4]oxazino[4,3-b]indazol-1-yl)-1-methylazetidin-1-ium chloride], the “AD: ADHD (probability of class match)” value was “+ (LOQ≦ + <5%)”, the “AG: analgesic” value was “+++ (25%≦ +++ <50%)” and the “AX: anxiolytic” value was “++ (5%≦ ++ <25%)”. The “CE: cognitive enhancer” value was “++ (5%≦ ++ <25%)”, the “DP: anti-depressant” value was “++ (5%≦ ++ <25%)” and the “HA: hallucinogen” value was “+ (LOQ≦ + <5%)”. For the same compound, the “MS: mood stabilizer” value was “+ (LOQ≦ + <5%)”, the “PS: anti-psychotic” value was “+ (LOQ≦ + <5%)” and the “SD: sedative hypnotic” value was “++ (5%≦ ++ <25%)”. The “UN: uncharacterized CNS activity” value was “+ (LOQ≦ + <5%)” and the “XG: anxiogenic” value was “++ (5%≦ ++ <25%)”.
With `Cl.c1ccc2c3n(nc2c1)CCO[C@@H]3[C@@H]1COCCN1` (racemic) [Compound 45, (+/−)—(S)-3-((R)-3,4-dihydro-1H-[1,4]oxazino[4,3-b]indazol-1-yl)morpholin-4-ium chloride] the “AD: ADHD (probability of class match)” value was “+ (LOQ≦ + <5%)”, the “AG: analgesic” value was “+ (LOQ≦ + <5%)” and the “AX: anxiolytic” value was “+ (LOQ≦ + <5%)”. For the same compound, the “CE: cognitive enhancer” value was “+ (LOQ≦ + <5%)”, the “DP: anti-depressant” value was “+ (LOQ≦ + <5%)” and the “HA: hallucinogen” value was “+ (LOQ≦ + <5%)”. For the same compound, the “MS: mood stabilizer” value was “+ (LOQ≦ + <5%)”, the “PS: anti-psychotic” value was “+ (LOQ≦ + <5%)” and the “SD: sedative hypnotic” value was “+ (LOQ≦ + <5%)”. The “UN: uncharacterized CNS activity” value was “+ (LOQ≦ + <5%)” and the “XG: anxiogenic” value was “+ (LOQ≦ + <5%)”.
`CN1CCOC[C@H]1[C@@H]1OCCn2nc3ccccc3c21` (racemic) [Compound 48, (+/−)-(3S,4R)-3-((S)-3,4-dihydro-1H-[1,4]oxazino[4,3-b]indazol-1-yl)-4-methylmorpholin-4-ium chloride] was tested, and the “AD: ADHD (probability of class match)” value was “+ (LOQ≦ + <5%)”, the “AG: analgesic” value was “+ (LOQ≦ + <5%)” and the “AX: anxiolytic” value was “+ (LOQ≦ + <5%)”. The “CE: cognitive enhancer” value was “+ (LOQ≦ + <5%)”, the “DP: anti-depressant” value was “+ (LOQ≦ + <5%)” and the “HA: hallucinogen” value was “+ (LOQ≦ + <5%)”. For the same compound, the “MS: mood stabilizer” value was “+ (LOQ≦ + <5%)”, the “PS: anti-psychotic” value was “+ (LOQ≦ + <5%)” and the “SD: sedative hypnotic” value was “+ (LOQ≦ + <5%)”. The “UN: uncharacterized CNS activity” value was “+ (LOQ≦ + <5%)” and the “XG: anxiogenic” value was “+ (LOQ≦ + <5%)”.
With `CCN(C)CC1OCCCn2nc3ccccc3c21.Cl` (stereo not shown) [Compound 53, N-((4,5-dihydro-1H,3H-[1,4]oxazepino[4,3-b]indazol-1-yl)methyl)-N-methylethanaminium chloride] the “AD: ADHD (probability of class match)” value was “+ (LOQ≦ + <5%)”, the “AG: analgesic” value was “+ (LOQ≦ + <5%)” and the “AX: anxiolytic” value was “++ (5%≦ ++ <25%)”. The “CE: cognitive enhancer” value was “+ (LOQ≦ + <5%)”, the “DP: anti-depressant” value was “++ (5%≦ ++ <25%)” and the “HA: hallucinogen” value was “+ (LOQ≦ + <5%)”. For the same compound, the “MS: mood stabilizer” value was “+ (LOQ≦ + <5%)”, the “PS: anti-psychotic” value was “+ (LOQ≦ + <5%)” and the “SD: sedative hypnotic” value was “++ (5%≦ ++ <25%)”. The “UN: uncharacterized CNS activity” value was “++ (5%≦ ++ <25%)” and the “XG: anxiogenic” value was “+ (LOQ≦ + <5%)”.
For `c1ccc2c3n(nc2c1)CCOC3[C@@H]1CCN1` (stereo partly drawn) [Compound 64, (2S)-2-(3,4-dihydro-1H-[1,4]oxazino[4,3-b]indazol-1-yl)azetidin-1-ium chloride], the “AD: ADHD (probability of class match)” value was “++++ (50%≦ ++++)”, the “AG: analgesic” value was “++ (5%≦ ++ <25%)” and the “AX: anxiolytic” value was “++ (5%≦ ++ <25%)”. The “CE: cognitive enhancer” value was “+ (LOQ≦ + <5%)”, the “DP: anti-depressant” value was “++ (5%≦ ++ <25%)” and the “HA: hallucinogen” value was “+ (LOQ≦ + <5%)”. The “MS: mood stabilizer” value was “+ (LOQ≦ + <5%)”, the “PS: anti-psychotic” value was “+ (LOQ≦ + <5%)” and the “SD: sedative hypnotic” value was “+ (LOQ≦ + <5%)”. For the same compound, the “UN: uncharacterized CNS activity” value was “+++ (25%≦ +++ <50%)” and the “XG: anxiogenic” value was “+ (LOQ≦ + <5%)”.
With `c1ccc2c3n(nc2c1)CCOC3CN1CCCC1` (stereo not shown) [Compound 19, 1-(pyrrolidin-1-ylmethyl)-3,4-dihydro-1H-[1,4]oxazino[4,3-b]indazole hydrogen chloride salt] the “AD: ADHD (probability of class match)” value was “+ (LOQ≦ + <5%)”, the “AG: analgesic” value was “++ (5%≦ ++ <25%)” and the “AX: anxiolytic” value was “++ (5%≦ ++ <25%)”. The “CE: cognitive enhancer” value was “++ (5%≦ ++ <25%)”, the “DP: anti-depressant” value was “+++ (25%≦ +++ <50%)” and the “HA: hallucinogen” value was “+ (LOQ≦ + <5%)”. The “MS: mood stabilizer” value was “+ (LOQ≦ + <5%)”, the “PS: anti-psychotic” value was “+ (LOQ≦ + <5%)” and the “SD: sedative hypnotic” value was “+ (LOQ≦ + <5%)”. For the same compound, the “UN: uncharacterized CNS activity” value was “+ (LOQ≦ + <5%)” and the “XG: anxiogenic” value was “+ (LOQ≦ + <5%)”.
In the case of `NCC1OCCn2nc3ccccc3c21` (stereo not shown) [Compound 15, (3,4-dihydro-1H-[1,4]oxazino[4,3-b]indazol-1-yl)methanamine], the “AD: ADHD (probability of class match)” value is reported as “++++ (50%≦ ++++)”, the “AG: analgesic” value is reported as “++ (5%≦ ++ <25%)” and the “AX: anxiolytic” value is reported as “+ (LOQ≦ + <5%)”. The “CE: cognitive enhancer” value was “+ (LOQ≦ + <5%)”, the “DP: anti-depressant” value was “++ (5%≦ ++ <25%)” and the “HA: hallucinogen” value was “+ (LOQ≦ + <5%)”. The “MS: mood stabilizer” value was “+ (LOQ≦ + <5%)”, the “PS: anti-psychotic” value was “+ (LOQ≦ + <5%)” and the “SD: sedative hypnotic” value was “+ (LOQ≦ + <5%)”. For the same compound, the “UN: uncharacterized CNS activity” value was “+ (LOQ≦ + <5%)” and the “XG: anxiogenic” value was “+ (LOQ≦ + <5%)”.

Reference: patent publication US9758529B2, “Fused dihydro-4H-pyrazolo[5,1-C][1,4]oxazinyl compounds and analogs for treating CNS disorders” (Sunovion Pharmaceuticals Inc., priority 2015, dated 2017)
